Laboratory results: ChEMBL document CHEMBL2380247, “Synthesis and biological evaluation of novel aliphatic amido-quaternary ammonium salts for anticancer chemotherapy: part II” (2013)
Activity calls are given as the source filed them. The calls are words filed in the database; no cut-off is given here.

Columns and labels:
PC-3 [1] = experiment: Antiproliferative activity against human PC3 cells at 0.3 uM by SRB assay; type: functional
ACHN [2] = experiment: Antiproliferative activity against human ACHN cells at 1 uM by SRB assay; type: functional
HCT-15 [3] = experiment: Antiproliferative activity against human HCT15 cells by SRB assay; type: functional
NCI-H23 [4] = experiment: Antiproliferative activity against human NCI-H23 cells at 3 uM by SRB assay; type: functional
ACHN [5] = experiment: Antiproliferative activity against human ACHN cells at 10 uM by SRB assay; type: functional
PC-3 [6] = experiment: Antiproliferative activity against human PC3 cells by SRB assay; type: functional
PC-3 [7] = experiment: Antiproliferative activity against human PC3 cells at 1 uM by SRB assay; type: functional
PC-3 [8] = experiment: Antiproliferative activity against human PC3 cells at 0.1 uM by SRB assay; type: functional
ACHN [9] = experiment: Antiproliferative activity against human ACHN cells at 0.1 uM by SRB assay; type: functional
NUGC-3 [10] = experiment: Antiproliferative activity against human NUGC3 cells by SRB assay; type: functional
NCI-H23 [11] = experiment: Antiproliferative activity against human NCI-H23 cells at 10 uM by SRB assay; type: functional
MDA-MB-231 [12] = experiment: Antiproliferative activity against human MDA-MB-231 cells at 0.1 uM by SRB assay; type: functional
NUGC-3 [13] = experiment: Antiproliferative activity against human NUGC3 cells at 0.1 uM by SRB assay; type: functional
ACHN [14] = experiment: Antiproliferative activity against human ACHN cells at 0.3 uM by SRB assay; type: functional
NUGC-3 [15] = experiment: Antiproliferative activity against human NUGC3 cells at 1 uM by SRB assay; type: functional
HCT-15 [16] = experiment: Antiproliferative activity against human HCT15 cells at 3 uM by SRB assay; type: functional
HCT-15 [17] = experiment: Antiproliferative activity against human HCT15 cells at 10 uM by SRB assay; type: functional
ACHN [18] = experiment: Antiproliferative activity against human ACHN cells by SRB assay; type: functional
NUGC-3 [19] = experiment: Antiproliferative activity against human NUGC3 cells at 0.3 uM by SRB assay; type: functional
NUGC-3 [20] = experiment: Antiproliferative activity against human NUGC3 cells at 3 uM by SRB assay; type: functional
MDA-MB-231 [21] = experiment: Antiproliferative activity against human MDA-MB-231 cells at 3 uM by SRB assay; type: functional
MDA-MB-231 [22] = experiment: Antiproliferative activity against human MDA-MB-231 cells at 0.3 uM by SRB assay; type: functional
NUGC-3 [23] = experiment: Antiproliferative activity against human NUGC3 cells at 10 uM by SRB assay; type: functional
PC-3 [24] = experiment: Antiproliferative activity against human PC3 cells at 3 uM by SRB assay; type: functional
MDA-MB-231 [25] = experiment: Antiproliferative activity against human MDA-MB-231 cells at 10 uM by SRB assay; type: functional
HCT-15 [26] = experiment: Antiproliferative activity against human HCT15 cells at 0.1 uM by SRB assay; type: functional
NCI-H23 [27] = experiment: Antiproliferative activity against human NCI-H23 cells by SRB assay; type: functional
NCI-H23 [28] = experiment: Antiproliferative activity against human NCI-H23 cells at 0.1 uM by SRB assay; type: functional
NCI-H23 [29] = experiment: Antiproliferative activity against human NCI-H23 cells at 0.3 uM by SRB assay; type: functional
PC-3 [30] = experiment: Antiproliferative activity against human PC3 cells at 10 uM by SRB assay; type: functional
HCT-15 [31] = experiment: Antiproliferative activity against human HCT15 cells at 0.3 uM by SRB assay; type: functional
HCT-15 [32] = experiment: Antiproliferative activity against human HCT15 cells at 1 uM by SRB assay; type: functional
NCI-H23 [33] = experiment: Antiproliferative activity against human NCI-H23 cells at 1 uM by SRB assay; type: functional
[34] = biological target: Rho-related GTP-binding protein RhoB (Homo sapiens) (UniProt P62745); experiment: Transactivation of RhoB in human HeLa cells by luciferase reporter assay; type: cell-based
Rho-related GTP-binding protein RhoB (Homo sapiens), sequence (P62745 whole entry): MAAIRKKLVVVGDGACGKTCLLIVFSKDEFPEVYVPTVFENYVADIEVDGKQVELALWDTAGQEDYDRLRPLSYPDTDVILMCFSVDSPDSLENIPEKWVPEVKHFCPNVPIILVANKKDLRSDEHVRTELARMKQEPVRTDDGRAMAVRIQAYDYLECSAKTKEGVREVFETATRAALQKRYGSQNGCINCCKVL

ACHN [35] = experiment: Antiproliferative activity against human ACHN cells at 3 uM by SRB assay; type: functional
MDA-MB-231 [36] = experiment: Antiproliferative activity against human MDA-MB-231 cells by SRB assay; type: functional
MDA-MB-231 [37] = experiment: Antiproliferative activity against human MDA-MB-231 cells at 1 uM by SRB assay; type: functional

| GI50 (HCT-15 [3]) [nM] | GI50 (PC-3 [6]) [nM] | GI50 (ACHN [18]) [nM] | Compound | growth, % of control at 0.3 µM (PC-3 [1]) [%] | growth, % of control at 1 µM (ACHN [2]) [%] | growth, % of control at 3 µM (NCI-H23 [4]) [%] | growth, % of control at 10 µM (ACHN [5]) [%] | growth, % of control at 1 µM (PC-3 [7]) [%] | growth, % of control at 0.1 µM (PC-3 [8]) [%] | growth, % of control at 0.1 µM (ACHN [9]) [%] | GI50 (NUGC-3 [10]) [nM] | growth, % of control at 10 µM (NCI-H23 [11]) [%] | growth, % of control at 0.1 µM (MDA-MB-231 [12]) [%] | growth, % of control at 0.1 µM (NUGC-3 [13]) [%] | growth, % of control at 0.3 µM (ACHN [14]) [%] | growth, % of control at 1 µM (NUGC-3 [15]) [%] | growth, % of control at 3 µM (HCT-15 [16]) [%] | growth, % of control at 10 µM (HCT-15 [17]) [%] | growth, % of control at 0.3 µM (NUGC-3 [19]) [%] | growth, % of control at 3 µM (NUGC-3 [20]) [%] | further results |
| --- | --- | --- | --- | --- | --- | --- | --- | --- | --- | --- | --- | --- | --- | --- | --- | --- | --- | --- | --- | --- | --- |
| 1730 | 240 | 2300 | CCCCCCCCCCCCCCCCCC(=O)NCC(C)(C)C[N+](C)(C)C | 76.1 | 71.3 | 47.4 | 45.8 | 11.9 | 84.1 | 86.5 | 450 | 21.5 | 78.5 | 79.4 | 79.6 | 46.7 | 46 | 27.5 | 72.3 | 17.7 | growth, % of control at 3 µM (MDA-MB-231 [21]): 41.6%; growth, % of control at 0.3 µM (MDA-MB-231 [22]): 78.8%; growth, % of control at 10 µM (NUGC-3 [23]): 26.4%; growth, % of control at 3 µM (PC-3 [24]): -38.6%; growth, % of control at 10 µM (MDA-MB-231 [25]): 26.8%; growth, % of control at 0.1 µM (HCT-15 [26]): 97.1%; GI50 (NCI-H23 [27]): 1710 nM; growth, % of control at 0.1 µM (NCI-H23 [28]): 97.1%; growth, % of control at 0.3 µM (NCI-H23 [29]): 95.3%; growth, % of control at 10 µM (PC-3 [30]): -47%; growth, % of control at 0.3 µM (HCT-15 [31]): 91.8%; growth, % of control at 1 µM (HCT-15 [32]): 81.1%; growth, % of control at 1 µM (NCI-H23 [33]): 86.3%; Activity [34]: Active; growth, % of control at 3 µM (ACHN [35]): 43.5%; GI50 (MDA-MB-231 [36]): 1210 nM; growth, % of control at 1 µM (MDA-MB-231 [37]): 70.9% |
| 3700 | 510 | 3120 | CCCCCCCCCCCCCC(=O)NCC(C)(C)C[N+](C)(C)C | 94.5 | 95.1 | 48.3 | 28.7 | 64.1 | 97.9 | 94.5 | 840 | -26.6 | 98.5 | 103 | 96.2 | 84.7 | 92.5 | 33.1 | 104 | 16.2 | growth, % of control at 3 µM (MDA-MB-231 [21]): 44%; growth, % of control at 0.3 µM (MDA-MB-231 [22]): 103%; growth, % of control at 10 µM (NUGC-3 [23]): -33.6%; growth, % of control at 3 µM (PC-3 [24]): -13%; growth, % of control at 10 µM (MDA-MB-231 [25]): -11%; growth, % of control at 0.1 µM (HCT-15 [26]): 102%; GI50 (NCI-H23 [27]): 1440 nM; growth, % of control at 0.1 µM (NCI-H23 [28]): 147%; growth, % of control at 0.3 µM (NCI-H23 [29]): 109%; growth, % of control at 10 µM (PC-3 [30]): -44.4%; growth, % of control at 0.3 µM (HCT-15 [31]): 101%; growth, % of control at 1 µM (HCT-15 [32]): 97.9%; growth, % of control at 1 µM (NCI-H23 [33]): 104%; Activity [34]: Active; growth, % of control at 3 µM (ACHN [35]): 83.8%; GI50 (MDA-MB-231 [36]): 1310 nM; growth, % of control at 1 µM (MDA-MB-231 [37]): 90.2% |
| 790 | 390 | 1560 | CCCCCCCCCCCCCC(=O)NCCC[N+](C)(C)C | 87.3 | 77.1 | 39.8 | 25.4 | 44.6 | 85.2 | 83.3 | 430 | -15.6 | 83.4 | 84.9 | 77.2 | 46.7 | 33 | 14.7 | 73.2 | 28.7 | growth, % of control at 3 µM (MDA-MB-231 [21]): 58.1%; growth, % of control at 0.3 µM (MDA-MB-231 [22]): 81.2%; growth, % of control at 10 µM (NUGC-3 [23]): 14.8%; growth, % of control at 3 µM (PC-3 [24]): -4.97%; growth, % of control at 10 µM (MDA-MB-231 [25]): 19.1%; growth, % of control at 0.1 µM (HCT-15 [26]): 83.5%; GI50 (NCI-H23 [27]): 1020 nM; growth, % of control at 0.1 µM (NCI-H23 [28]): 99.4%; growth, % of control at 0.3 µM (NCI-H23 [29]): 96.4%; growth, % of control at 10 µM (PC-3 [30]): -22.8%; growth, % of control at 0.3 µM (HCT-15 [31]): 82.5%; growth, % of control at 1 µM (HCT-15 [32]): 71.6%; growth, % of control at 1 µM (NCI-H23 [33]): 80.9%; Activity [34]: Active; growth, % of control at 3 µM (ACHN [35]): 58.1%; GI50 (MDA-MB-231 [36]): 1480 nM; growth, % of control at 1 µM (MDA-MB-231 [37]): 80.6% |
